Experimental data published in patent publication US6060597A, “Cyclic oligosaccharide, and an agent containing the same for preventing or treating retroviral diseases” (Kikkoman Corporation, priority 1997, dated 2000).

How the values were obtained:
[1] = target: binding of gp120 to CD4 receptor (HIV-1 M:B_HXB2R, UniProt P04578); assay: inhibition of the binding of gp120 to CD4 receptor (drug discovery kit, duPont); conditions: concentration range of 0 to 100 mg/ml; FIG. 5
Experimental: Measurement of anti-HIV activity of sulfated CI-8
Sulfated CI-8 obtained above in Example 1 was examined for the activity of inhibiting the binding of gp120 to CD4 receptor in the concentration range of […] using a drug discovery kit (duPont).

fresh rat blood [2] = assay: anticoagulation activity in fresh rat blood, microtiter plate, visual evaluation of serum separation; type: biochemical; conditions: citrated fresh rat blood, CaCl2-initiated, 15 minutes at room temperature; for anticoagulation activity: judged against 20 U/mg standard
Experimental: Anticoagulation activity of sulfated cyclic oligosaccharide
Sulfated CI-8 was examined for its anticoagulation activity. 1% aqueous sulfated CI-8 solution obtained by dissolving 10 mg of sulfated CI-8 sodium in 1 ml de-ionized water was diluted at various concentrations with 0.85% sterilized NaCl solution (physiological saline) to prepare sulfated CI-8 solutions at various concentrations. Solutions of dextran 5000 sodium sulfate (Wako Pure Chemical Industries, Ltd.) at various concentrations were also prepared in the same manner. Standard solutions at various concentrations were prepared using dextran sodium sulfate having 20 U/mg anticoagulation activity (a gift from Meito Sangyo K. K.).
40 μl each of the aqueous solutions were put to each well on a 96-well microtiter plate. Then, 50 μof fresh rat blood containing 0.38% trisodium citrate was put to each well and mixed. Further, 10 μl of 2% aqueous CaCl2 solution and mixed whereby blood-coagulation reaction was initiated. The plate was left at room temperature for 15 minutes and centrifuged at 2000 rpm for 10 minutes, and the separation of the serum in each well was visually evaluated. As a result, the anticoagulation activity of sulfated CI-8 was judged to be about 1/2 relative to the known dextran sodium sulfate, so its activity was judged to be about […]. The activity of dextran 5000 sodium sulfate was judged to be about 40 U/mg.

fresh rat blood [3] = conditions: stated activity of the standard substance (gift from Meito Sangyo K. K.); cited from earlier work

cyclic isomaltoctaose-heptadecyl-0-sulfate sodium salt [sulfated CI-8]
activity of inhibiting the binding of gp120 to CD4 receptor [1]: inhibited the binding of pg120 to CD4 in proportion to its concentration | anticoagulation activity (fresh rat blood [2]): about 10 U/ml | anticoagulation activity relative to the known dextran sodium sulfate (fresh rat blood [2]; relative to 20 U/mg standard): about 1/2

dextran 5000 sodium sulfate [reference compound]
anticoagulation activity (fresh rat blood [2]): about 40 U/mg

dextran sodium sulfate
anticoagulation activity of the standard (fresh rat blood [3]): 20 U/mg
